Common to all, as to type: physicochemical
A short description of data set [1]: Basic ionization constant, pKa of the compound.
The nature of data set [2]: Acidic ionization constant, pKa of the compound.
Data set [3] in a line: Ionization constant, pKa of compound at pH 5 to 10.
A short description of data set [4]: Ionization constant, pKa of compound at pH 1 to 5.
A short description of data set [5]: 1-octanol/water partition coefficient, acidic logP of compound by shake flask method.
Data set [6] can be described thus: Ionization constant, pKa of compound.
Data set [7] in a line: Acidic ionization constant, pKa of the compound by potentiometric titration analysis.

As for `Cc1ccnc(C(=O)NC2CCCCC2)c1O`, the pKa in data set [1] is less than 2; in data set [2], 8.5.

`Cc1cc(NC(=O)C2=C(O)c3ccccc3S(=O)(=O)N2C)no1` [ISOXICAM] registered a pKa in data set [1] of less than 2.

For the compound `O=C(NC1CCCCC1)c1ncccc1O`, in data set [1], the pKa was found to be 2.2. `CCCC1C(=O)N2C(N(C)C)=Nc3ccc(C)cc3N2C1=O` (stereo unspecified) [APAZONE] registered a pKa in data set [1] of less than 2. Turning to `CN1C(C(=O)Nc2nccs2)=C(O)c2ccccc2S1(=O)=O` [SUDOXICAM], the pKa in data set [1] is less than 2; in data set [2], 3.1. Take `CC(C)CCNC(=O)c1ncccc1O`: the pKa in data set [3] came out at 7.85; in data set [1], 2.3; in data set [2], 7.9; in data set [4] it was 2.4. In the case of `CN1C(C(=O)Nc2ccccn2)=C(O)c2sc(Cl)cc2S1(=O)=O` [LORNOXICAM], the pKa in data set [1] is less than 2. In data set [5], `N[C@@H](Cc1cc(I)c(Oc2ccc(O)c(I)c2)c(I)c1)C(=O)O` [LIOTHYRONINE] showed a logP of 4.1. The same measure, in the same setting: in the case of `CCc1cc(/C(C)=N/OCc2ccc(C3CCCCC3)c(C(F)(F)F)c2)ccc1CN1CC(C(=O)O)C1` [SIPONIMOD] it was 8.9; in that of `CN1C(C(=O)Nc2ccccn2)=C(O)c2ccccc2S1(=O)=O` [PIROXICAM], 4.

Regarding `Cc1ncc(CO)c(CO)c1O` [PYRIDOXINE], the pKa in data set [6] was 5.

Consider `NC(=O)c1ncn([C@@H]2O[C@H](CO)[C@@H](O)[C@H]2O)c1O` [MIZORIBINE], for which the pKa in data set [7] is 6.5. `CCOC(=O)CNC(=O)c1ncccc1O` had a pKa in data set [1] of 2.2. `O=C(NC1CCCCC1)c1nccc(Cl)c1O`: the pKa was less than 2 in data set [1] and 6.8 in data set [2]. As to `CNC(=O)c1ccccc1O`, the pKa in data set [2] was 8.

`N[C@@H](Cc1cc(I)c(Oc2cc(I)c(O)c(I)c2)c(I)c1)C(=O)O` [LEVOTHYROXINE] showed a logP in data set [5] of 5.4. The compound `CC(C)(C)NC(=O)c1ccccn1` yielded a pKa in data set [1] of 2.1. As for `COc1ccnc(C(=O)NC2CCCCC2)c1O`, the pKa in data set [1] was determined as 2.3; in data set [2], 9.1. In data set [1], `COc1cccc(CNC(=O)c2ncccc2OC)c1` registered a pKa of 2.9.

The term pKa denotes the negative logarithm of the acid dissociation constant. A high value points to a weaker acid or stronger base. As usually defined, the logP is the decadic logarithm of the partition coefficient of the neutral form, usually between octanol and water.
